Columns and labels:
Format in all cases: in vivo
beet = experiment: Test Example 5: effect on crop by foliage application, plastic box (symbol f); conditions: 320 g/ha, 3 weeks after application
Summary of the method: (§1)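 Plants were raised from seed in a greenhouse (25° C. to 30° C.) after sowing in a plastic box of sterilized diluvial soil.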

Monochoria vaginalis = experiment: Test Example 1: herbicidal activity, application before weed generation in submerged conditions (symbol C); conditions: application herbicide amount 320 g/ha
Summary of the method: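 0–5 visual score, 3 wk post-application. Submerged pots, alluvial soil, water 4 cm; seeds sown mixed, rice at 2.5 leaves transplanted. Emulsion diluted to predetermined dose, applied to water surface at sowing. 25–30 °C greenhouse.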

wheat = experiment: Test Example 4: effect on crop by soil treatment (symbol e); conditions: application herbicide amount 320 g/ha
Summary of the method: (§2)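 Seeds were sown in spots on sterilized diluvial soil in a plastic box and covered with about 1.5 cm of soil. Plants were then grown in a greenhouse at 25° C. to 30° C.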

[1] = system: Echinochloa oryzacola Vasing.; experiment: Test Example 2: herbicidal activity, application during weed generation in submerged conditions (symbol A); conditions: Table 23; application herbicide amount 320 g/ha; grade 0-5 by criteria of Test Example 1
Summary of the method: (§3)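 Treatment timing was the one- to two-leaf stage, with diluted emulsifiable compound dropped onto the paddy water (depth 4 cm) over alluvial soil. All three species grew from a mixed sowing in a 25° C. to 30° C. greenhouse. Injury was judged by eye 3 weeks on.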

corn [2] = experiment: Test Example 4: effect on crop by soil treatment (symbol c); conditions: application herbicide amount 320 g/ha
Summary of the method: as §2

Abutilon theophrasti = experiment: Test Example 4: herbicidal effect by soil treatment (symbol M); conditions: application herbicide amount 320 g/ha
Summary of the method: (§4)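 Seeds were sown in sterilized diluvial soil, covered with about 1.5 cm of soil, and the soil surface was sprayed with a water-diluted emulsion of the compound at a predetermined rate. Plants grew in a greenhouse at 25° C. to 30° C.; effects were scored visually 3 weeks after application.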

Stellaria media = experiment: Test Example 4: herbicidal effect by soil treatment (symbol P); conditions: application herbicide amount 320 g/ha
Summary of the method: as §4

soybean [3] = experiment: Test Example 4: effect on crop by soil treatment (symbol d); conditions: application herbicide amount 320 g/ha
Summary of the method: as §2

Scirpus juncoides = experiment: Test Example 2: herbicidal activity, application during weed generation in submerged conditions (symbol B); conditions: Table 23; application herbicide amount 320 g/ha; grade 0-5 by criteria of Test Example 1
Summary of the method: as §3

Leptochloa chinensis = experiment: Test Example 3: herbicidal effect by foliage application, Wagner pot (symbol D); conditions: application herbicide amount 320 g/ha
Summary of the method: (§5)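 The compound, formulated as an emulsion and diluted with water to a predetermined rate, is applied uniformly to leaves of two-week-old seedlings growing in submerged alluvial soil at 25–30 °C. Rice is included. Each plant is assessed 3 weeks later using defined criteria.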

transplanted rice plant = experiment: Test Example 1: effect on crop, application before weed generation in submerged conditions (symbol a); conditions: application herbicide amount 320 g/ha
Summary of the method: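 Alluvial soil pots flooded to 4 cm water, sown with Echinochloa oryzacola, Scirpus juncoides and Monochoria vaginalis, then transplanted with 2.5 leaf stage rice seedlings; pre-emergence application. Greenhouse 25° C. to 30° C.; scored 0–5 by herbicidal ratio 3 weeks after application.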

Cyperus difformis = experiment: Test Example 3: herbicidal effect by foliage application, Wagner pot (symbol E); conditions: application herbicide amount 320 g/ha
Summary of the method: as §5

[4] = system: Echinochloa crus-galli var. crus-galli; experiment: Test Example 3: herbicidal effect by foliage application, Wagner pot (symbol H); conditions: application herbicide amount 320 g/ha
Summary of the method: as §5

corn [5] = experiment: Test Example 5: effect on crop by foliage application, plastic box (symbol c); conditions: 320 g/ha, 3 weeks after application
Summary of the method: as §1

rice plant = experiment: Test Example 5: effect on crop by foliage application, plastic box (symbol b); conditions: 320 g/ha, 3 weeks after application
Summary of the method: as §1

soybean [6] = experiment: Test Example 5: effect on crop by foliage application, plastic box (symbol d); conditions: 320 g/ha, 3 weeks after application
Summary of the method: as §1

| SMILES | f: beet, effect on crop (criteria of Test Example 1) (beet) | Herbicidal effect grade, C: Monochoria vaginalis (Monochoria vaginalis) | Effect on crop grade, e: wheat (wheat) | Herbicidal effect grade, A: Echinochloa oryzacola Vasing. [1] | Effect on crop grade, c: corn (corn [2]) | Herbicidal effect grade, M: Abutilon theophrasti (Abutilon theophrasti) | Herbicidal effect grade, P: Stellaria media (Stellaria media) | Effect on crop grade, d: soybean (soybean [3]) | Herbicidal effect grade, B: Scirpus juncoides (Scirpus juncoides) | herbicidal effect on D (Leptochloa chinensis), grade 0-5 (Leptochloa chinensis) | Effect grade on crop, a: transplanted rice plant (transplanted rice plant) | herbicidal effect on E, grade 0-5 (Cyperus difformis) | herbicidal effect on H (Echinochloa crus-galli var. crus-galli), grade 0-5 [4] | c: corn, effect on crop (criteria of Test Example 1) (corn [5]) | b: directly sowed rice plant, effect on crop (criteria of Test Example 1) (rice plant) | d: soybean, effect on crop (criteria of Test Example 1) (soybean [6]) |
| --- | --- | --- | --- | --- | --- | --- | --- | --- | --- | --- | --- | --- | --- | --- | --- | --- |
| CON=C(C)CC1CC(OC(=O)N2CCOCC2)=C(c2c(C)cc(-c3ccc(Cl)cc3F)cc2C)C1=O (centres unmarked) [6-089] | 0 (Herbicidal ratio of 5% or lower (almost no effect)) | 3 (Herbicidal ratio of 40% or higher and lower than 70%) | 0 (Herbicidal ratio of 5% or lower (almost no effect)) | 5 (Herbicidal ratio of 90% or more (almost completely withered)) | 0 (Herbicidal ratio of 5% or lower (almost no effect)) | 0 (Herbicidal ratio of 5% or lower (almost no effect)) | 0 (Herbicidal ratio of 5% or lower (almost no effect)) | 0 (Herbicidal ratio of 5% or lower (almost no effect)) | 2 (Herbicidal ratio of 20% or higher and lower than 40%) | 5 (Herbicidal ratio of 90% or more (almost completely withered)) | 5 (Herbicidal ratio of 90% or more (almost completely withered)) | 4 (Herbicidal ratio of 70% or higher and lower than 90%) | 5 (Herbicidal ratio of 90% or more (almost completely withered)) |  |  |  |
| CON=C(C)CC1CC(OC(=O)N2CCOCC2)=C(c2c(C)cc(C)cc2OC)C1=O (centres unmarked) [6-094] |  | 3 (Herbicidal ratio of 40% or higher and lower than 70%) | 0 (Herbicidal ratio of 5% or lower (almost no effect)) | 5 (Herbicidal ratio of 90% or more (almost completely withered)) | 1 (Herbicidal ratio of 5% or higher and lower than 20%) | 4 (Herbicidal ratio of 70% or higher and lower than 90%) | 0 (Herbicidal ratio of 5% or lower (almost no effect)) | 0 (Herbicidal ratio of 5% or lower (almost no effect)) | 2 (Herbicidal ratio of 20% or higher and lower than 40%) | 5 (Herbicidal ratio of 90% or more (almost completely withered)) | 5 (Herbicidal ratio of 90% or more (almost completely withered)) | 5 (Herbicidal ratio of 90% or more (almost completely withered)) | 5 (Herbicidal ratio of 90% or more (almost completely withered)) | 5 (Herbicidal ratio of 90% or more (almost completely withered)) | 5 (Herbicidal ratio of 90% or more (almost completely withered)) | 4 (Herbicidal ratio of 70% or higher and lower than 90%) |
| CON=C(C)CC1CC(O)=C(c2c(F)cc(Br)cc2OC)C1=O (centres unmarked) [6-096] | 0 (Herbicidal ratio of 5% or lower (almost no effect)) | 0 (Herbicidal ratio of 5% or lower (almost no effect)) | 0 (Herbicidal ratio of 5% or lower (almost no effect)) | 4 (Herbicidal ratio of 70% or higher and lower than 90%) | 3 (Herbicidal ratio of 40% or higher and lower than 70%) | 0 (Herbicidal ratio of 5% or lower (almost no effect)) | 0 (Herbicidal ratio of 5% or lower (almost no effect)) | 0 (Herbicidal ratio of 5% or lower (almost no effect)) | 0 (Herbicidal ratio of 5% or lower (almost no effect)) | 4 (Herbicidal ratio of 70% or higher and lower than 90%) | 5 (Herbicidal ratio of 90% or more (almost completely withered)) | 5 (Herbicidal ratio of 90% or more (almost completely withered)) | 5 (Herbicidal ratio of 90% or more (almost completely withered)) |  |  |  |
| CON=C(C)CC1CC(O)=C(c2c(C)cc(-c3cc(F)c(F)c(F)c3)cc2C)C1=O (centres unmarked) [6-104] | 4 (Herbicidal ratio of 70% or higher and lower than 90%) | 5 (Herbicidal ratio of 90% or more (almost completely withered)) | 5 (Herbicidal ratio of 90% or more (almost completely withered)) | 5 (Herbicidal ratio of 90% or more (almost completely withered)) | 5 (Herbicidal ratio of 90% or more (almost completely withered)) | 5 (Herbicidal ratio of 90% or more (almost completely withered)) | 3 (Herbicidal ratio of 40% or higher and lower than 70%) | 0 (Herbicidal ratio of 5% or lower (almost no effect)) | 5 (Herbicidal ratio of 90% or more (almost completely withered)) | 5 (Herbicidal ratio of 90% or more (almost completely withered)) | 5 (Herbicidal ratio of 90% or more (almost completely withered)) |  | 5 (Herbicidal ratio of 90% or more (almost completely withered)) | 5 (Herbicidal ratio of 90% or more (almost completely withered)) | 5 (Herbicidal ratio of 90% or more (almost completely withered)) | 3 (Herbicidal ratio of 40% or higher and lower than 70%) |
| CON=C(C)CC1CC(O)=C(c2c(F)cc(-c3ccccc3)cc2OC)C1=O (centres unmarked) [6-107] | 2 (Herbicidal ratio of 20% or higher and lower than 40%) | 5 (Herbicidal ratio of 90% or more (almost completely withered)) | 4 (Herbicidal ratio of 70% or higher and lower than 90%) | 5 (Herbicidal ratio of 90% or more (almost completely withered)) | 0 (Herbicidal ratio of 5% or lower (almost no effect)) | 4 (Herbicidal ratio of 70% or higher and lower than 90%) | 2 (Herbicidal ratio of 20% or higher and lower than 40%) | 0 (Herbicidal ratio of 5% or lower (almost no effect)) | 5 (Herbicidal ratio of 90% or more (almost completely withered)) | 5 (Herbicidal ratio of 90% or more (almost completely withered)) | 5 (Herbicidal ratio of 90% or more (almost completely withered)) |  | 5 (Herbicidal ratio of 90% or more (almost completely withered)) | 5 (Herbicidal ratio of 90% or more (almost completely withered)) | 5 (Herbicidal ratio of 90% or more (almost completely withered)) | 1 (Herbicidal ratio of 5% or higher and lower than 20%) |

From US11000033B2, “Ketone or oxime compound, and herbicide” (NISSAN CHEMICAL CORPORATION, priority 2014, dated 2021)
